Converted amounts (≈) assume the structure as drawn. Read-outs that look alike come from different tables or passages of the source.
Assays:
[1] = assay type: physicochemical
[2] = assay type: physicochemical; remark: listed apart in the source

solvation heat (ΔHsol) ([1]; difference between ΔHvap and ΔHtotal): -22.52 kJ/mol
total heat (∆Htotal), Chrastil model ([1]; methyldopa in ScCO2): 34.35 kJ/mol
vaporization heat (∆Hvap), Bartle et al. model ([1]; methyldopa in ScCO2): 56.87 kJ/mol
y × 10^5 (mole fraction in ScCO2) ([2]; 313 K, 12 MPa, CO2 density 719.2 kg.m^−3): 2.481
y × 10^5 (mole fraction in ScCO2) ([2]; 313 K, 15 MPa, CO2 density 781.2 kg.m^−3): 3.013
y × 10^5 (mole fraction in ScCO2) ([2]; 313 K, 18 MPa, CO2 density 820.7 kg.m^−3): 3.942
y × 10^5 (mole fraction in ScCO2) ([2]; 313 K, 21 MPa, CO2 density 850.4 kg.m^−3): 4.531
y × 10^5 (mole fraction in ScCO2) ([2]; 313 K, 24 MPa, CO2 density 873.9 kg.m^−3): 5.520
y × 10^5 (mole fraction in ScCO2) ([2]; 313 K, 27 MPa, CO2 density 893.5 kg.m^−3): 6.320
y × 10^5 (mole fraction in ScCO2) ([2]; 313 K, 30 MPa, CO2 density 910.3 kg.m^−3): 7.652
y × 10^5 (mole fraction in ScCO2) ([2]; 323 K, 12 MPa, CO2 density 587.2 kg.m^−3): 1.880
y × 10^5 (mole fraction in ScCO2) ([2]; 323 K, 15 MPa, CO2 density 701.1 kg.m^−3): 3.390
y × 10^5 (mole fraction in ScCO2) ([2]; 323 K, 18 MPa, CO2 density 758.8 kg.m^−3): 4.490
y × 10^5 (mole fraction in ScCO2) ([2]; 323 K, 21 MPa, CO2 density 797.4 kg.m^−3): 5.910
y × 10^5 (mole fraction in ScCO2) ([2]; 323 K, 24 MPa, CO2 density 826.1 kg.m^−3): 7.114
y × 10^5 (mole fraction in ScCO2) ([2]; 323 K, 27 MPa, CO2 density 851.7 kg.m^−3): 7.790
y × 10^5 (mole fraction in ScCO2) ([2]; 323 K, 30 MPa, CO2 density 871.5 kg.m^−3): 8.832
y × 10^5 (mole fraction in ScCO2) ([2]; 333 K, 12 MPa, CO2 density 435.3 kg.m^−3): 1.520
y × 10^5 (mole fraction in ScCO2) ([2]; 333 K, 15 MPa, CO2 density 606.8 kg.m^−3): 2.841
y × 10^5 (mole fraction in ScCO2) ([2]; 333 K, 18 MPa, CO2 density 688.4 kg.m^−3): 5.090
y × 10^5 (mole fraction in ScCO2) ([2]; 333 K, 21 MPa, CO2 density 740.3 kg.m^−3): 7.050
y × 10^5 (mole fraction in ScCO2) ([2]; 333 K, 24 MPa, CO2 density 777.5 kg.m^−3): 8.125
y × 10^5 (mole fraction in ScCO2) ([2]; 333 K, 27 MPa, CO2 density 806.7 kg.m^−3): 9.163
y × 10^5 (mole fraction in ScCO2) ([2]; 333 K, 30 MPa, CO2 density 830.5 kg.m^−3): 9.960
y × 10^5 (mole fraction in ScCO2) ([2]; 343 K, 12 MPa, CO2 density 346.1 kg.m^−3): 0.805
y × 10^5 (mole fraction in ScCO2) ([2]; 343 K, 15 MPa, CO2 density 507.5 kg.m^−3): 2.043
y × 10^5 (mole fraction in ScCO2) ([2]; 343 K, 18 MPa, CO2 density 613.5 kg.m^−3): 5.410
y × 10^5 (mole fraction in ScCO2) ([2]; 343 K, 21 MPa, CO2 density 678.9 kg.m^−3): 7.484
y × 10^5 (mole fraction in ScCO2) ([2]; 343 K, 24 MPa, CO2 density 724.9 kg.m^−3): 8.632
y × 10^5 (mole fraction in ScCO2) ([2]; 343 K, 27 MPa, CO2 density 760.3 kg.m^−3): 10.061
y × 10^5 (mole fraction in ScCO2) ([2]; 343 K, 30 MPa, CO2 density 788.9 kg.m^−3): 11.345
solubility at 5 h ([2]; solubility S in ScCO2, range over all conditions, 12–30 MPa, 313–343 K): 0.0134 to 0.428 mg/mL (≈ 63.4 to 2030 µM)
Compound: C[C@](N)(Cc1ccc(O)c(O)c1)C(=O)O [methyldopa, Methyldopa]

— PMC11704008 (Scientific Reports, 2025)
